Results reported in patent publication US20040076974A1, “Liver necrosis predictive genes” (priority 2002, published 2004).
Values joined by “and” are separate entries in the source; they are usually repeats but may differ in a detail not shown here. Equal entries are not always repeated. Where two headings read alike, the source gives them in different places.

Assays:
[1] = tested on: Sprague Dawley rats; conditions: for Liver Necrosis / Score (histopathology liver necrosis severity score): rat, intraperitoneal; for Liver Necrosis: 72 hours after treatment; for Score (histopathology liver necrosis severity score): 72 hours, 1 = not remarkable, 2 and higher increasing severity
Summary of the method: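 Toxicity calls (necrosis present or absent at 72 h) and histopathology scores were correlated with tissue gene expression from Crl:CD Sprague Dawley rats. Animals, usually 3 treated with compound by i.p. route and 3 given vehicle, were killed at 6, 24 or 72 h and tissues frozen immediately in liquid nitrogen.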

[2] = tested on: toxicologically relevant rat genes (rat CT array); conditions: 24 h; dose 200; listed as BRB

Structure (SMILES): Brc1ccccc1 [bromobenzene]
- Liver Toxicity Necrosis Classification ([1]; 72 h, compound-dose group, dose BRB 800, BUS 14, CAD 1, CAR 16): yes
- Liver Toxicity Necrosis Classification ([1]; 72 h, dose 200, animals 2327, 2328, 2329): yes
- Liver Toxicity Necrosis Classification ([1]; 72 h, dose 800, animal 2337): yes
- Liver Toxicity Necrosis Classification ([1]; compound-dose group at 72 h, dose 200, yes = necrosis observed): yes
- Liver Toxicity Necrosis Classification ([1]; compound-dose group at 72 h, dose 800, yes = necrosis observed): yes
- Liver Toxicity Necrosis Classification ([1]; compound-dose group at 72 h, dose 200): yes
- Liver Toxicity Necrosis Classification ([1]; compound-dose group at 72 h, dose 800): yes
- Liver Necrosis ([1]; dose 0.2 ml/kg): Yes
- Score (histopathology liver necrosis severity score) ([1]; dose 0.2 ml/kg): 2
- Liver Necrosis ([1]; dose 0.8 ml/kg): Yes
- Score (histopathology liver necrosis severity score) ([1]; dose 0.8 ml/kg): 4
- 3-hydroxyisobutyrate dehydrogenase expression (treatment/control) [2]: 0.8751 and 1.339 and 0.6927
- 14-3-3 zeta expression (treatment/control) [2]: 1.437 and 1.592
- 25-DX expression (treatment/control) [2]: 1.969 and 1.763 and 1.86
- 60S ribosomal protein L6 expression (treatment/control) [2]: 2.093 and 1.63 and 1.941
- Alpha-2-macroglobulin expression (treatment/control) [2]: 0.5548 and 0.5467 and 0.459
- Apolipoprotein CIII expression (treatment/control) [2]: 0.8126 and 0.7007
- Argininosuccinate lyase expression (treatment/control) [2]: 2.651 and 1.764 and 2.145
- Bax (alpha) expression (treatment/control) [2]: 1.536 and 1.414 and 1.327
- Beta-actin expression (treatment/control) [2]: 2.486 and 1.816 and 2.608
- Beta-tubulin, class I expression (treatment/control) [2]: 2.668 and 1.782 and 2.339
- Carbonyl reductase expression (treatment/control) [2]: 1.678 and 1.035 and 1.375
- Cathepsin L, sequence 2 expression (treatment/control) [2]: 2.896 and 1.549 and 2.344
- Cofilin expression (treatment/control) [2]: 2.923 and 2.064 and 2.935
- DNA polymerase beta expression (treatment/control) [2]: 1.369 and 1.206 and 1.307
- Dynamin-1 (D100) expression (treatment/control) [2]: 0.8053 and 0.7635 and 0.8226
- Elongation factor-1 alpha expression (treatment/control) [2]: 2.054 and 1.728 and 1.8
- Endogenous retroviral sequence, 5′ and 3′ LTR expression (treatment/control) [2]: 1.854 and 1.585 and 2.582
- Enolase alpha expression (treatment/control) [2]: 2.419 and 1.535 and 1.712
- Epidermal growth factor expression (treatment/control) [2]: 0.7593 and 0.7117 and 0.804
- Fas antigen expression (treatment/control) [2]: 0.9199 and 0.9142 and 1.12
- Glucose-regulated protein 78 expression (treatment/control) [2]: 1.405 and 1.625 and 1.635
- Hepatic lipase expression (treatment/control) [2]: 0.569 and 0.6299 and 0.3937
- ID-1 expression (treatment/control) [2]: 1.9 and 1.248 and 1.715
- Integrin beta1 expression (treatment/control) [2]: 1.457 and 0.9085 and 1.427
- MAP kinase kinase expression (treatment/control) [2]: 1.27 and 1.166 and 1.092
- Matrin F/G expression (treatment/control) [2]: 0.6546 and 0.8987 and 0.4635
- Matrix metalloproteinase-1 expression (treatment/control) [2]: 1.585 and 1.263 and 1.628
- Melanoma-associated antigen ME491 expression (treatment/control) [2]: 1.388 and 0.9209 and 1.67
- Monocyte chemotactic protein receptor (CCR2) expression (treatment/control) [2]: 1.124 and 0.9935 and 1.064
- Multidrug resistant protein-2 expression (treatment/control) [2]: 1.861 and 1.261 and 1.657
- Nucleoside diphosphate kinase beta isoform expression (treatment/control) [2]: 1.862 and 1.504 and 1.541
- Organic anion transporter 3 expression (treatment/control) [2]: 0.5569 and 0.821 and 0.6551
- Organic cation transporter 3 expression (treatment/control) [2]: 1.241 and 0.9547 and 1.365
- Ornithine decarboxylase expression (treatment/control) [2]: 2.762 and 1.488 and 2.288
- Phase-1 RCT-12 expression (treatment/control) [2]: 1.003
- Phase-1 RCT-15 expression (treatment/control) [2]: 2.352 and 2.155
- Phase-1 RCT-36 expression (treatment/control) [2]: 0.7233 and 0.7082 and 0.8303
- Phase-1 RCT-37 expression (treatment/control) [2]: 0.9672
- Phase-1 RCT-65 expression (treatment/control) [2]: 1.706 and 1.856
- Phase-1 RCT-68 expression (treatment/control) [2]: 1.972 and 1.887
- Phase-1 RCT-72 expression (treatment/control) [2]: 1.442
- Phase-1 RCT-78 expression (treatment/control) [2]: 0.6352 and 0.7712 and 0.5322
- Phase-1 RCT-83 expression (treatment/control) [2]: 0.6204 and 0.729
- Phase-1 RCT-88 expression (treatment/control) [2]: 0.7128 and 0.75 and 0.8397
- Phase-1 RCT-109 expression (treatment/control) [2]: 1.895 and 1.651 and 2.226
- Phase-1 RCT-117 expression (treatment/control) [2]: 0.6683 and 0.7437
- Phase-1 RCT-123 expression (treatment/control) [2]: 0.7152 and 0.6828 and 0.8648
- Phase-1 RCT-137 expression (treatment/control) [2]: 1.102 and 0.6023
- Phase-1 RCT-152 expression (treatment/control) [2]: 1.957 and 1.542 and 2.109
- Phase-1 RCT-154 expression (treatment/control) [2]: 0.9986 and 1.304
- Phase-1 RCT-168 expression (treatment/control) [2]: 0.6821 and 0.7986 and 0.5665
- Phase-1 RCT-180 expression (treatment/control) [2]: 1.503
- Phase-1 RCT-181 expression (treatment/control) [2]: 0.8932 and 0.9997
- Phase-1 RCT-182 expression (treatment/control) [2]: 1.301 and 0.688
- Phase-1 RCT-189 expression (treatment/control) [2]: 0.5887 and 0.552
- Phase-1 RCT-191 expression (treatment/control) [2]: 1.728 and 1.302 and 2.139
